Results: patent publication US12433877B2, “Sustained release drug delivery systems and related methods” (Durect Corporation, priority 2021, dated 2025)
Counter-ions that a name gives are not always drawn.

Key:
[1] = tested on: subjects undergoing elective outpatient laparoscopic cholecystectomy; assay: Example 17: laparoscopic cholecystectomy study, safety (surgical site and CNS-related adverse reactions, TEAEs); type: in vivo; conditions: for Fatal TEAE: Part 2
Experimental: In two studies in patients undergoing laparoscopic cholecystectomy, Formulation A or bupivacaine HCl was administered into the laparoscopic port incisions at the end of surgery. In one of these studies, a subset of patients received either Formulation A or saline placebo. In a study of patients undergoing laparoscopically-assisted colectomy, Formulation A or vehicle placebo was administered predominantly into the hand port incision at the end of surgery. In a study of patients undergoing laparotomy, Formulation A or bupivacaine HCl was administered into the full length of the surgical incision at the end of surgery. Table 4.7 and Table 4.8 present, respectively, surgical-site adverse reactions and early-occurring central nervous system (CNS)-related adverse reactions from the laparoscopic cholecystectomy study that included a saline placebo control arm.
The trial included: 1) a randomized, parallel-group, double-blind, placebo-controlled study (Part 1) and a randomized, parallel-group, double-blind, bupivacaine HCl active-controlled study (Part 2). The trial evaluated the efficacy and safety of Formulation A (bupivacaine, benzyl alcohol, sucrose acetate isobutyrate) as a delivery system in subjects undergoing elective outpatient laparoscopic cholecystectomy.
The study was conducted as 2 separate parts (Part 1 and Part 2).
The fascia was closed, as required, prior to instillation of Formulation A. Formulation A was instilled into the incisions via a blunt-tipped syringe-tip applicator just prior to skin closure. After administration, the skin was closed in standard fashion with subcuticular sutures and cyanoacrylate skin adhesive or Steri-Strips™.
In Part 1, subjects randomized to saline-placebo were administered sterile normal saline 5 mL (0.9% sodium chloride injection, USP) by direct instillation into the surgical incisions. The 5 mL of placebo was divided between the 4 ports according to a protocol-specified dosing schedule, to provide coverage of all surgical incisions. The fascia was closed, as required, prior to instillation of the placebo composition. The placebo composition was instilled into the incisions via a blunt-tipped syringe-tip applicator just prior to skin closure. After administration, the skin was closed in standard fashion with subcuticular sutures and cyanoacrylate skin adhesive or Steri-Strips™.
In Part 2, subjects randomized to active control were administered bupivacaine HCl 0.5% 15 mL (75 mg; without epinephrine) by infiltration into the margins of the surgical incisions with a 22 gauge needle. The 15 mL of bupivacaine HCl composition was divided between the 4 ports according to a protocol-specified dosing schedule, to provide coverage of all surgical incisions. The fascia was closed, as required, prior to administration of the bupivacaine HCl active control composition. After infiltration, the skin was closed in standard fashion with subcuticular sutures and cyanoacrylate skin adhesive or Steri-Strips™
There were no fatalities in this trial. […]

[2] = tested on: patients undergoing total abdominal hysterectomy; assay: Adverse reactions, total abdominal hysterectomy study; type: in vivo, human; conditions: Formulation A N = 60; Bupivacaine HCl N = 27
Experimental: In a study of patients undergoing total abdominal hysterectomy, Formulation A, vehicle placebo, or bupivacaine HCl was administered into the surgical incision at the end of surgery.

pregnant rats = conditions: rat, in vivo
Experimental: Bupivacaine hydrochloride was administered subcutaneously to rats at doses of 4.4, 13.3, & 40 mg/kg and to rabbits at doses of 1.3, 5.8, & 22.2 mg/kg during the period of organogenesis (implantation to closure of the hard palate). The high doses are approximately 0.6 times the daily maximum recommended human dose (MRHD) of 660 mg/day on a mg/m^2 body surface area (BSA) basis.

[3] = tested on: patients undergoing a variety of general surgical procedures; assay: Example 18: general surgical procedures (laparotomy, laparoscopic cholecystectomy, colectomy), pain and opioid use; type: in vivo, human; conditions: ITT; for Repeated Measures Pain Intensity on Movement 0-72 Hours, LS Mean: All Timepoints 0-72 hr, LogPad scores only
[4] = human, in vivo

CCCCN1CCCCC1C(=O)Nc1c(C)cccc1C (stereo not shown) [Bupivacaine HCl]
Fatal TEAE ([1]; % of subjects): (0.0%)
Fatal TEAE ([1]; number of subjects): 0
Surgical site: Drainage from surgical incision(s) ([1]; human, in vivo): (4.1%)
Surgical site: Surgical site bleeding ([1]; human, in vivo): (16.2%)
Surgical site: Surgical site infection ([1]; human, in vivo): (0.7%)
Surgical site: Visible bruising ([1]; human, in vivo): (70.9%)
Surgical site: Wound dehiscence ([1]; human, in vivo): (2.0%)
Surgical site: Wound hematoma ([1]; human, in vivo): (1.4%)
Treated subjects with treatment-emergent serious adverse events ([1]; human, in vivo): 3 subjects
Constipation (Constipation), (%) ([1]; human, in vivo, 6 h): (6.8%)
Dizziness (Dizziness), (%) ([1]; human, in vivo, 6 h): (20.9%)
Dysgeusia (Metallic taste in mouth), (%) ([1]; human, in vivo, 6 h): (14.9%)
Headache (Headache), (%) ([1]; human, in vivo, 6 h): (12.2%)
Hypoesthesia (Numbness), (%) ([1]; human, in vivo, 6 h): (0.7%)
Nausea (Nausea), (%) ([1]; human, in vivo, 6 h): (38.5%)
Paresthesia (Tingling), (%) ([1]; human, in vivo, 6 h): (4.1%)
Pruritus (Itching), (%) ([1]; human, in vivo, 6 h): (3.4%)
Somnolence (Drowsiness), (%) ([1]; human, in vivo, 6 h): (32.4%)
Vomiting (Vomiting), (%) ([1]; human, in vivo, 6 h): (10.1%)
Anemia, (%) [2]: (11.1%)
C-reactive protein increased, (%) [2]: (3.7%)
Dizziness, (%) [2]: (14.8%)
Hypertension, (%) [2]: (7.4%)
Pyrexia, (%) [2]: (25.9%)
Somnolence, (%) [2]: (7.4%)
Vomiting, (%) [2]: (14.8%)
Embryo-fetal effects at the high dose (pregnant rats): No embryo-fetal effects were observed
Repeated Measures Pain Intensity on Movement 0-72 Hours, LS Mean ([3]; Cohort 1 (Laparotomy)): 5.9
Total Morphine-equivalent Opioid Medication Use, MEDD 0-72 hours, Median ([3]; Cohort 1 (Laparotomy)): 63.0 mg
Repeated Measures Pain Intensity on Movement 0-72 Hours, LS Mean ([3]; Cohort 2 (Laparoscopic Cholecystectomy)): 3.6
Cmax (min, max), free bupivacaine [4]: (0.3, 10.1) ng/mL
